The source of these data is ChEMBL document CHEMBL4219148, “Discovery of a highly potent orally bioavailable imidazo-[1, 2-a]pyrazine Aurora inhibitor” (Bioorg Med Chem Lett, 2018).

A value given as a limit tells only on which side of the number the result lay.

A short description of data set [1]: AUC (0 to 6 hrs) in rat at 10 mg/kg, po. In kind it is ADME, organism-based. More on the design: time < 6 hr, dose 10 mg/kg, route oral. Conditions: in vivo.
For another data set, the target named is T1, Aurora kinase A (Homo sapiens, UniProt O14965).
T1 sequence (O14965 whole entry): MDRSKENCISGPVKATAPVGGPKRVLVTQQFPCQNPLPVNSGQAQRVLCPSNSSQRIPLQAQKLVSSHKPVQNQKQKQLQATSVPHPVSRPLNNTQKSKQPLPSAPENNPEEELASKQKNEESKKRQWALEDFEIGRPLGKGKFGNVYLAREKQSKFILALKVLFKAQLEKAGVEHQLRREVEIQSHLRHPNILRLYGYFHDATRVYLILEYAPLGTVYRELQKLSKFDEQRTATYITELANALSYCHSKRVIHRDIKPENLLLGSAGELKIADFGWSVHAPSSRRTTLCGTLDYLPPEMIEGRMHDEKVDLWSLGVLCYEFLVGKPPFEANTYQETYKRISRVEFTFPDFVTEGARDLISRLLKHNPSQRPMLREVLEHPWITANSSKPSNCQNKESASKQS
The data set is described as follows: Inhibition of Aurora A (unknown origin) using Tamra-PKAtide as substrate by fluorescence polarization assay. A general note: Fluorescence polarisation rises when a labelled molecule tumbles more slowly, as on binding a larger partner.

The target of data set [2] is T2, Aurora kinase B (Homo sapiens, UniProt Q96GD4). The data set is described as follows: Inhibition of Aurora B in human HCT116 cells assessed as reduction in phosphorylation of Histone H3 at Ser10 residue incubated for 1 hr by Hoechst 33342 dye-based immunofluorescence microscopic method. It counts as cell-based.
Data set [3] addresses T2, Aurora kinase B. Description: Inhibition of Aurora B (unknown origin) using Tamra-PKAtide as substrate by fluorescence polarization assay.
Data set [4] in a line: Apparent permeability from apical to basolateral side in human intestinal Caco2 cells. In kind it is ADME, cell-based. Conditions: Caco-2. In general terms: Caco-2 monolayers are a common model of the intestinal barrier.
Data set [5] can be described thus: AUC (0 to 24 hrs) in rat at 30 mg/kg, po. It counts as ADME, organism-based. Also noted: time < 24 hr, dose 30 mg/kg, route oral. Conditions: in vivo.

T2 sequence (Q96GD4 whole entry): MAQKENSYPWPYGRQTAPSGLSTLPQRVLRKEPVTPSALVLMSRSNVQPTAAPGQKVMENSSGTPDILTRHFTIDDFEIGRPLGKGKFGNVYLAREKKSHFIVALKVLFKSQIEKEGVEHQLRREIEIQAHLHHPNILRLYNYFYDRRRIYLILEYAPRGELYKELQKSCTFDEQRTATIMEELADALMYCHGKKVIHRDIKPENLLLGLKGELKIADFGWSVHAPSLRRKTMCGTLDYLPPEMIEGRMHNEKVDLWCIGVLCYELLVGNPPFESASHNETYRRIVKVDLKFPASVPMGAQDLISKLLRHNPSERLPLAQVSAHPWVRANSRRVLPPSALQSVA

The term AUC(0-t) denotes exposure summed from dosing to a finite time, without extrapolation to infinity. Broadly, the IC50 is the concentration that inhibits the measured activity by half. A lower IC50 goes with greater potency in that assay. Broadly, the EC50 is the concentration needed to bring the measured effect to its halfway point. With `Cc1cn2c(-c3cn[nH]c3)cnc2c(Nc2cc(Cc3cccc(F)n3)ns2)n1`, the AUC(0-t) at 6 h in data set [1] came to 7.3 µM·h. Also, the half-inhibitory concentration (IC50) at Aurora kinase A was less than 4 nM; against Aurora kinase B [3] it was less than 13 nM. Further, the half-maximal effective concentration (EC50) on Aurora kinase B [2] was determined as 100 nM.
In general, Papp A→B refers to how fast a substance crosses the layer from the apical side. As for `Cc1cn2c(-c3cn[nH]c3)cnc2c(Nc2cc(Cc3cnccn3)ns2)n1`, the AUC(0-t) at 6 h in data set [1] amounted to 0.15 µM·h. Besides, the IC50 at Aurora kinase A is less than 4 nM; at Aurora kinase B [3] it was less than 13 nM. In addition, the Papp A→B in data set [4] was 4.3 ×10⁻⁶ cm/s. Also, on Aurora kinase B [2], the EC50 was determined as 208 nM.
For the molecule `Cc1ccc(Cc2cc(Nc3nc(C)cn4c(-c5cn[nH]c5)cnc34)sn2)nc1`, the AUC(0-t) at 6 h in data set [1] came to 3.4 µM·h. For the same molecule, the values for the IC50 against Aurora kinase A and at Aurora kinase B [3] were less than 4 nM and less than 13 nM, respectively. The EC50 at Aurora kinase B [2] came to 475 nM.
In data set [1], `Cc1cn2c(-c3cn[nH]c3)cnc2c(Nc2cc(Cc3ncccc3F)ns2)n1` returned an AUC(0-t) at 6 h of 1.4 µM·h. For the same molecule, the IC50 is less than 4 nM against Aurora kinase A and less than 13 nM against Aurora kinase B [3]. For the same molecule, on Aurora kinase B [2], the EC50 is 182 nM.
In data set [1], `Cc1cn2c(-c3cn[nH]c3)cnc2c(Nc2cc(Cc3ccc(F)cn3)ns2)n1` registered an AUC(0-t) at 6 h of 5.5 µM·h. The IC50 at Aurora kinase A is less than 4 nM; against Aurora kinase B [3], less than 13 nM. The EC50 at Aurora kinase B [2] was 486 nM.
Consider `Cc1cn2c(-c3cn[nH]c3)cnc2c(Nc2cc(Cc3cccnc3)ns2)n1`, for which the IC50 was less than 4 nM at Aurora kinase A and less than 13 nM at Aurora kinase B [3]. The EC50 at Aurora kinase B [2] is greater than 1000 nM.
Take `Cc1cn2c(-c3cn[nH]c3)cnc2c(Nc2cc(Cc3ncccc3C)ns2)n1`: in data set [1], the AUC(0-t) at 6 h is 1.6 µM·h. Besides, the IC50 against Aurora kinase A is less than 4 nM; against Aurora kinase B [3], less than 13 nM. The EC50 at Aurora kinase B [2] was determined as 250 nM.
In data set [1], `Cc1ccnc(Cc2cc(Nc3nc(C)cn4c(-c5cn[nH]c5)cnc34)sn2)c1` returned an AUC(0-t) at 6 h of 4.6 µM·h. The IC50 on Aurora kinase A was less than 4 nM; at Aurora kinase B [3], less than 13 nM. The EC50 on Aurora kinase B [2] turned out to be 376 nM.
In data set [1], `Cc1cn2c(-c3cn[nH]c3)cnc2c(Nc2cc(Cc3cccc(C(=O)N4CCCCC4)n3)ns2)n1` returned an AUC(0-t) at 6 h of 0.1 µM·h. For the same molecule, the IC50 is less than 4 nM on Aurora kinase A and less than 13 nM against Aurora kinase B [3]. For the same molecule, the EC50 on Aurora kinase B [2] was determined as 245 nM.
`COc1cccc(Cc2cc(Nc3nc(C)cn4c(-c5cn[nH]c5)cnc34)sn2)n1`: the AUC(0-t) at 6 h in data set [1] was 5.5 µM·h. Also, the IC50 against Aurora kinase A was less than 4 nM; at Aurora kinase B [3], less than 13 nM. In addition, the EC50 on Aurora kinase B [2] was determined as 356 nM.
`Cc1cn2c(-c3cn[nH]c3)cnc2c(Nc2cc(Cc3ccncc3)ns2)n1`: the values for the IC50 on Aurora kinase A and against Aurora kinase B [3] were less than 4 nM and less than 13 nM, respectively. In addition, the EC50 on Aurora kinase B [2] is greater than 1000 nM.
Turning to `Cc1cn2c(-c3cn[nH]c3)cnc2c(Nc2cc(Cc3nccs3)ns2)n1`, the AUC(0-t) at 6 h in data set [1] amounted to 3.9 µM·h. The IC50 against Aurora kinase A was less than 4 nM; at Aurora kinase B [3], less than 13 nM. For the same molecule, the EC50 on Aurora kinase B [2] is 170 nM.
In the case of `Cc1cn2c(-c3cn[nH]c3)cnc2c(Nc2cc(Cc3cccc(CN4CCCCC4)n3)ns2)n1`, the figures for the IC50 on Aurora kinase A and against Aurora kinase B [3] were less than 4 nM and less than 13 nM, respectively. On Aurora kinase B [2], the EC50 came to 289 nM.
Take `Cc1cn2c(-c3cn[nH]c3)cnc2c(Nc2cc(Cc3cccc(CO)n3)ns2)n1`: the half-maximal inhibitory concentration (IC50) against Aurora kinase A is less than 4 nM; against Aurora kinase B [3], less than 13 nM. On Aurora kinase B [2], the EC50 was 559 nM.
Regarding `Cc1cn2c(-c3cn[nH]c3)cnc2c(Nc2cc(Cn3cccc(C)c3=O)ns2)n1`, the IC50 against Aurora kinase A was less than 4 nM; at Aurora kinase B [3], less than 13 nM. The EC50 at Aurora kinase B [2] stood at 487 nM.
In the same order, the values of `Cc1cn2c(-c3cn[nH]c3)cnc2c(Nc2cc(Cn3ccnc3)ns2)n1` are less than 4 nM, less than 13 nM and 370 nM.
Consider `Cc1cccc(Cc2cc(Nc3nc(C)cn4c(-c5cn[nH]c5)cnc34)sn2)n1`, for which the AUC(0-t) at 6 h in data set [1] stood at 7.7 µM·h. For the same molecule, the figures for the IC50 at Aurora kinase A and at Aurora kinase B [3] were less than 4 nM and less than 13 nM, respectively. Besides, the EC50 on Aurora kinase B [2] was found to be 88 nM.
Consider `Cc1cn2c(-c3cn[nH]c3)cnc2c(Nc2cc(Cn3cccn3)ns2)n1`, for which the IC50 on Aurora kinase A was less than 4 nM; on Aurora kinase B [3] it was less than 13 nM. Further, the EC50 on Aurora kinase B [2] worked out at 184 nM.
As for `Cc1cn2c(-c3cn[nH]c3)cnc2c(Nc2cc(Cn3cccc3)ns2)n1`, the IC50 against Aurora kinase A is less than 4 nM; at Aurora kinase B [3] it was less than 13 nM. In addition, at Aurora kinase B [2], the EC50 came to 530 nM.
The molecule `Cc1cn2c(-c3cn[nH]c3)cnc2c(Nc2cc(Cc3ncccn3)ns2)n1` displayed an AUC(0-t) at 6 h in data set [1] of 1.8 µM·h. Besides, the IC50 against Aurora kinase A was less than 4 nM; against Aurora kinase B [3] it was less than 13 nM. Besides, the EC50 on Aurora kinase B [2] is 203 nM.
Take `Cc1cn2c(-c3cn[nH]c3)cnc2c(Nc2cc(C(NC(C)(C)C)c3ccccn3)ns2)n1` (racemic): the AUC(0-t) at 6 h in data set [1] came out at 1.6 µM·h. The IC50 on Aurora kinase A was less than 4 nM; against Aurora kinase B [3], less than 13 nM. Further, the EC50 on Aurora kinase B [2] was less than 16 nM.
On to `Cc1cn2c(-c3cn[nH]c3)cnc2c(Nc2cc(C(c3ccccn3)N3CCC(F)CC3)ns2)n1` (racemic), for which the AUC(0-t) at 6 h in data set [1] is 0.45 µM·h. Moreover, the IC50 against Aurora kinase A was less than 4 nM; against Aurora kinase B [3], less than 13 nM. The EC50 at Aurora kinase B [2] is 83 nM.
In data set [1], `Cc1cn2c(-c3cn[nH]c3)cnc2c(Nc2cc(C(c3ccccn3)N3CCCC3)ns2)n1` (racemic) showed an AUC(0-t) at 6 h of 0.02 µM·h. Moreover, the IC50 was less than 4 nM at Aurora kinase A and less than 13 nM at Aurora kinase B [3]. For the same molecule, the EC50 on Aurora kinase B [2] is less than 16 nM.
In the same order, the values of `Cc1cn2c(-c3cn[nH]c3)cnc2c(Nc2cc(C(NC3CCCC3)c3ccccn3)ns2)n1` (racemic) are 0.67 µM·h, less than 4 nM, less than 13 nM and less than 16 nM.
The like results for `Cc1cn2c(-c3cn[nH]c3)cnc2c(Nc2cc(C(c3ccccn3)N3CCCCC3)ns2)n1` (racemic) were, in that order, 0.21 µM·h, less than 4 nM, less than 13 nM and less than 16 nM.
Turning to `Cc1cn2c(-c3cn[nH]c3)cnc2c(Nc2cc(C(NC(C)(C)C)c3ccccn3)ns2)n1` (single isomer, unassigned; (-)), the IC50 was no more than 4 nM against Aurora kinase A and no more than 13 nM at Aurora kinase B [3]. In data set [5], this molecule gave an AUC(0-t) at 24 h of 39 µM·h. Moreover, at Aurora kinase B [2], the EC50 was 50 nM.
